Measured values reported in ChEMBL document CHEMBL1158874, “Elgonica-Dimers A and B, Two Potent Alcohol Metabolism Inhibitory Constituents of Aloe arborescens” (J Nat Prod, 1997).

Key:
[1] = target: T1, Aldehyde dehydrogenase, cytosolic 1 (Rattus norvegicus, UniProt P13601); assay: Inhibition of Sprague-Dawley rat cytosolic aldehyde dehydrogenase
T1 sequence (P13601 whole entry): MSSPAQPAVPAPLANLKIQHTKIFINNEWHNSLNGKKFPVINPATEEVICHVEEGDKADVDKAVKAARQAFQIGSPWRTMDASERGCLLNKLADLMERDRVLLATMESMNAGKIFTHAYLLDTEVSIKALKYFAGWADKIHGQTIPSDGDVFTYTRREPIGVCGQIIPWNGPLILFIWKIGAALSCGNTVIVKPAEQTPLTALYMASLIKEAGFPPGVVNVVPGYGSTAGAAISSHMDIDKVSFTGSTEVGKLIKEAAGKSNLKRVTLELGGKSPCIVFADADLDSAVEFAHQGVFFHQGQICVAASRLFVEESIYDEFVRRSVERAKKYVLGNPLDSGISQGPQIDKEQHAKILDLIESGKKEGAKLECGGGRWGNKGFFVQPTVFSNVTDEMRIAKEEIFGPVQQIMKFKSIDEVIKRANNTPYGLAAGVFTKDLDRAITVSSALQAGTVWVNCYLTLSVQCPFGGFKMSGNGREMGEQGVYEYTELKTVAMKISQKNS

[2] = Inhibition of Sprague-Dawley rat cytosolic alcohol dehydrogenase
[3] = target: T2, Aldehyde dehydrogenase, mitochondrial (Rattus norvegicus, UniProt P11884); assay: Inhibition of Sprague-Dawley rat mitochondrial aldehyde dehydrogenase
T2 sequence (P11884 whole entry): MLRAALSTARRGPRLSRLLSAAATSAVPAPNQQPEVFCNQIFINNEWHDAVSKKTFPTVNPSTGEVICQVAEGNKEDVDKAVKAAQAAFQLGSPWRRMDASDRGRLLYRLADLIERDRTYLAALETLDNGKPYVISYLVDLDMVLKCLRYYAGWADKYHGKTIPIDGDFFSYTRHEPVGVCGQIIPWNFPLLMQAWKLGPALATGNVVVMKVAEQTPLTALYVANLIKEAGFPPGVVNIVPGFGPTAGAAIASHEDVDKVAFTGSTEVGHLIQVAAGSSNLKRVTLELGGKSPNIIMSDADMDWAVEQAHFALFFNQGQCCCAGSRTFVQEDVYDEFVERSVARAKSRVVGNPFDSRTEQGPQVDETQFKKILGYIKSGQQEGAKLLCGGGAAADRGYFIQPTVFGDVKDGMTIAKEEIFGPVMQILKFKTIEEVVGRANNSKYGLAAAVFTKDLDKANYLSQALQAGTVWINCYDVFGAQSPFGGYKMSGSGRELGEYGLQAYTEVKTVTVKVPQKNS

Structure (SMILES) | IC50 [1] [µM] | IC50 [2] [µM] | IC50 [3] [µM]
O=C1c2cc(CO)cc(O)c2C(=O)c2c1ccc(C1(C3O[C@H](CO)[C@@H](O)[C@H](O)[C@H]3O)c3cccc(O)c3C(=O)c3c(O)cc(CO)cc31)c2O (stereo partly drawn) [listing 1 of 2 here] | 0.16 | 0.055 | 0.36
O=C1c2cc(CO)cc(O)c2C(=O)c2c1ccc(C1(C3O[C@H](CO)[C@@H](O)[C@H](O)[C@H]3O)c3cccc(O)c3C(=O)c3c(O)cc(CO)cc31)c2O (stereo partly drawn) [listing 2 of 2 here] | 0.53 | 0.011 | 0.72
O=C1c2cccc(O)c2C(=O)c2c(O)cc(CO)cc21 [ALOE-EMODIN] | 6 | 24.4 | 
COc1cc(-c2c(C)cc(O)cc2O[C@@H]2O[C@@H](CO)[C@@H](O)[C@H](O)[C@H]2O)oc(=O)c1 [ALOENIN] | 27 | 33.1 | 
C#CCN(C)Cc1ccccc1 [PARGYLINE] | 300 |  | 5.6
c1cn[nH]c1 [PYRAZOLE] |  | 9.8 | 
